Measured values from ChEMBL document CHEMBL2429804, “Examination of the phenolic profile and antioxidant activity of the leaves of the Australian native plant Smilax glyciphylla” (J Nat Prod, 2013).

Assays:
[1] = Antioxidant activity assessed as trolox equivalent of DPPH scavenging activity after 4 mins by spectrophotometry; type: functional
[2] = Antioxidant activity assessed as trolox equivalent of ferric ion reducing activity using fe3+-TPTZ after 4 mins by FRAP assay; type: functional

SMILES | Activity [1] [equiv] | Activity [2] [equiv]
O=c1c(O[C@@H]2O[C@H](CO)[C@@H](O)[C@H](O)[C@H]2O)c(-c2ccc(O)c(O)c2)oc2cc(O)cc(O)c12 | 0.56 | 0.56
O=c1c(O)c(-c2ccc(O)cc2)oc2cc(O)cc(O)c12 | 2.4 | 2.36
Oc1cc(O)c2c(c1)OC(c1ccc(O)c(O)c1)C(O)C2 (stereo not given) | 0.44 | 0.56
C[C@@H]1O[C@@H](Oc2cc(O)cc(O)c2C(=O)CCc2ccc(O)c(O)c2)[C@H](O)[C@H](O)[C@H]1O | 0.48 | 0.72
O=C(CCc1ccc(O)c(O)c1)c1c(O)cc(O)cc1O | 0.88 | 0.64
